Source: patent US20240254118A1, “PRMT5 INHIBITORS AND USES THEREOF” (Gilead Sciences, Inc., priority 2022, published 2024)

Experiments:
[1] = tested on: HCT116 MTAP-deleted cells; experiment: Cell viability assay (CellTiter-Glo, 7 days), HCT116 MTAP-deleted; details: Homo sapiens, HCT-116, 168 h
Experimental: Control compounds were analyzed in parallel each time for quality control.
In Brief, on Day −1, a serial dilution of stock compounds in DMSO was performed using BioMek liquid handlers and dispensed using Echo acoustic dispenser into 384 well plates. Both tool compounds and sample compounds were spotted in the same plate for a dose response of PRMT5 inhibitors. Compound plates were stored as frozen until the cells were ready for seeding.
On Day 0, 100 HCT WT or HCT116 MTAP-deleted cells were seeded in compound-containing 384 well plates (50 μl per well) in RPMI 1640 media supplemented with 10% heat inactivated fetal bovine serum, Glutamax and penicillin streptomycin using EL460 liquid dispenser 5 μl cassette (BioTek, part no. 7170011). After equilibrating the plate in room temperature, the cells were incubated for 7 days inside the sealed incubator set at 37 °C with 90% humidity and 5% CO2.
On Day 7, the viability of cells was measured using a CTG assay kit (CellTitre-Glo; Promega cat no. G7573). Shortly, 40 μl per well of luminescent cell viability assay reagent were dispensed using EL460 liquid dispenser 5 μl cassette. CTG luminescence signal was measured using an EnVision plate reader (PerkinElmer) in accordance with manufacturer's instruction. The CC50 values for each compound after 7 days of treatment were calculated using 4 parameter non-linear logistical curve fit.

[2] = tested on: SDMA signal (PRMT5 inhibition) in HCT116 MTAP-deleted cells; experiment: Symmetric di-methyl arginine image-based high content screen assay (SDMA assay), HCT116 MTAP-deleted; format: cell-based; details: SDMA assay; for EC50: Homo sapiens, HCT-116, 72 h, 3 days of treatment, cell line not given, taken as HCT116 MTAP-deleted, read-out: EC50 (SDMA assay); for EC50 selectivity (SDMA assay): taken as HCT116 WT versus MTAP-deleted
Experimental: Symmetric di-methyl arginine image-based high content screen assay (SDMA assay) was performed in HCT116 WT and HCT116 MTAP-deleted cell lines to measure Symmetric Di-methyl Arginine (SDMA) signal reduction after selective PRMT5 inhibition in the MTAP-deleted cells.
Briefly, the same compound plates were generated as mentioned in the previous section of Cell viability assay on Day −1.
On Day 3, the cells were fixed by adding 45 μl of 8% neutralized formalin solution to each well using EL460 liquid dispenser 5 μl cassette and the cells were incubated for 30 minutes at room temperature. The formalin solution was washed off with […] phosphate buffered saline (dPBS), the 0.1% Triton X-100 solution in dPBS was used to permeabilize the cells for 15 minutes at room temperature. The triton solution was aspirated, 50 μl of Odyssey Blocking buffer+0.05% Tween20 was added and the plate was incubated at room temperature for 30 minutes.
The blocking solution was removed, a 20 μl of SDMA antibody (Cell Signaling Technology, Cat no. 13222) diluted 1:500 in Odyssey Blocking buffer+0.05% Tween20 was added and the plate was incubated at 4° C. overnight. Next day, the primary SDME antibody solution was washed from each well three times with 0.05% Tween20 in dPBS (PBST).
A 30 μl of the secondary antibody, a Goat anti-Rabbit Alexa Fluor Plus 488 (Invitrogen, Cat no. PIA32731) was diluted 1:500 in Odyssey Blocking buffer+0.05% Tween20 and the plate was incubated for 1.5 hours in dark at room temperature. The secondary antibody solution was removed, 30 μl of 5 mg/ml DAPI solution diluted 1:2000 in dPBS was added and the plate was incubated for 30 minutes in dark at room temperature. The DAPI solution was aspirated and the wells were washed six times with dPBS.
The SDMA signal and DAPI signal per cell were counted using a Cellomics CX7 LZR instrument reading under 488 and 405 nm laser, respectively. The SDMA signal was quantified by mean average intensity per cell from Alexa Fluor Plus 488 after the cell was defined with DAPI.

EC50 [2] [nM] | EC50 selectivity (SDMA assay) [2] | Compound | CC50 [1] [nM]
< 1 | 143 | Cn1ncc2c(N)nc3ccc(C(=O)N(Cc4ccc(C(F)(F)F)cn4)N4CCOCC4)cc3c21 [Example 20, 4-amino-1-methyl-N-morpholino-N-((5-(trifluoromethyl)pyridin-2-yl)methyl)-1H-pyrazolo[4,3-c]quinoline-8-carboxamide] | < 100
< 1 | 90 | Cn1ncc2c(N)nc3ccc(C(=O)N(Cc4ccc(C(F)(F)F)cn4)N4CCCC(F)(F)C4)cc3c21 [Example 21, 4-amino-N-(3,3-difluoro-1-piperidyl)-1-methyl-N-[[5-(trifluoromethyl)-2-pyridyl]methyl]pyrazolo[4,3-c]quinoline-8-carboxamide] | < 100
1 to 5 | 260 | Cn1ncc2c(N)nc3ccc(C(=O)N(Cc4ccc(C(F)(F)F)cn4)N4CCC(F)(F)CC4)cc3c21 [Example 22, 4-amino-N-(4,4-difluoro-1-piperidyl)-1-methyl-N-[[5-(trifluoromethyl)-2-pyridyl]methyl]pyrazolo[4,3-c]quinoline-8-carboxamide] | < 100
< 1 | 18 | CN(c1ncccn1)N(Cc1ccc(C(F)(F)F)cn1)C(=O)c1ccc2nc(N)c3cnn(C)c3c2c1 [Example 23, 4-amino-N′, 1-dimethyl-N′-(pyrimidin-2-yl)-N-((5-(trifluoromethyl)pyridin-2-yl)methyl)-1H-pyrazolo[4,3-c]quinoline-8-carbohydrazide] | < 100
< 1 | 87 | CN(c1ncccn1)N(Cc1ccc(C(F)(F)F)cn1)C(=O)c1ccc2nc(N)c3ccccc3c2c1 [Example 24, 6-amino-N′-methyl-N′-(pyrimidin-2-yl)-N-((5-(trifluoromethyl)pyridin-2-yl)methyl)phenanthridine-2-carbohydrazide] | < 100
1 to 5 | 26 | CN(c1ccccn1)N(Cc1ccc(C(F)(F)F)cn1)C(=O)c1ccc2nc(N)c3cnn(C)c3c2c1 [Example 25, 4-amino-N′, 1-dimethyl-N′-(2-pyridyl)-N-[[5-(trifluoromethyl)-2-pyridyl]methyl]pyrazolo[4,3-c]quinoline-8-carbohydrazide] | < 100
1 to 5 | 85 | Cn1ncc2c(N)nc3ccc(C(=O)N(Cc4ccc(C(F)(F)F)cn4)N4CCCC4=O)cc3c21 [Example 26, 4-amino-1-methyl-N-(2-oxopyrrolidin-1-yl)-N-[[5-(trifluoromethyl)-2-pyridyl]methyl]pyrazolo[4,3-c]quinoline-8-carboxamide] | < 100
< 1 | 94 | Cn1ncc2c(N)nc3ccc(C(=O)N(Cc4ccc(C(F)(F)F)cn4)N4CCCC4)cc3c21 [Example 27, 4-amino-1-methyl-N-pyrrolidin-1-yl-N-[[5-(trifluoromethyl)-2-pyridyl]methyl]pyrazolo[4,3-c]quinoline-8-carboxamide] | < 100
< 1 | 134 | Cn1ncc2c(N)nc3ccc(C(=O)N(Cc4ccc(C(F)(F)F)cn4)N4CCCCC4)cc3c21 [Example 28, 4-amino-1-methyl-N-(1-piperidyl)-N-[[5-(trifluoromethyl)-2-pyridyl]methyl]pyrazolo[4,3-c]quinoline-8-carboxamide] | < 100
< 1 | 43 | Cn1ncc2c(N)nc3ccc(C(=O)N(Cc4ccc(C(F)(F)F)cn4)N4CCCCC4=O)cc3c21 [Example 29, 4-amino-1-methyl-N-(2-oxo-1-piperidyl)-N-[[5-(trifluoromethyl)-2-pyridyl]methyl]pyrazolo[4,3-c]quinoline-8-carboxamide] | < 100
< 1 | 101 | Nc1nc2ccc(C(=O)N(Cc3ccc(C(F)(F)F)cn3)N3CCCCC3=O)cc2c2c1COC2 [Example 30, 4-amino-N-(2-oxo-1-piperidyl)-N-[[5-(trifluoromethyl)-2-pyridyl]methyl]-1,3-dihydrofuro[3,4-c]quinoline-8-carboxamide] | < 100
1 to 5 | 323 | Cn1ncc2c(N)nc3ccc(C(=O)N(Cc4ccc(C(F)(F)F)cn4)N4CCC(C)(C)CC4=O)cc3c21 [Example 31, 4-amino-N-(4,4-dimethyl-2-oxo-1-piperidyl)-1-methyl-N-[[5-(trifluoromethyl)-2-pyridyl]methyl]pyrazolo[4,3-c]quinoline-8-carboxamide] | < 100
< 1 | 74 | CN1CCN(N(Cc2ccc(C(F)(F)F)cn2)C(=O)c2ccc3nc(N)c4cnn(C)c4c3c2)C1=O [Example 32, 4-amino-1-methyl-N-(3-methyl-2-oxo-imidazolidin-1-yl)-N-[[5-(trifluoromethyl)-2-pyridyl]methyl]pyrazolo[4,3-c]quinoline-8-carboxamide] | < 100
< 1 | 73 | CC(=O)N(C)N(Cc1ccc(C(F)(F)F)cn1)C(=O)c1ccc2nc(N)c3cnn(C)c3c2c1 [Example 33, N′-acetyl-4-amino-N′, 1-dimethyl-N-[[5-(trifluoromethyl)-2-pyridyl]methyl]pyrazolo[4,3-c]quinoline-8-carbohydrazide] | < 100
1 to 5 | 8 | CC(=O)N(C)N(Cc1ccc(C(F)(F)F)cn1)C(=O)c1cc2c(cc1F)nc(N)c1cnn(C)c12 [Example 34, N′-acetyl-4-amino-7-fluoro-N′, 1-dimethyl-N-[[5-(trifluoromethyl)-2-pyridyl]methyl]pyrazolo[4,3-c]quinoline-8-carbohydrazide] | < 100
< 1 | 103 | Cn1ncc2c(N)nc3ccc(C(=O)N(Cc4ccc(C(F)(F)F)cn4)N4Cc5ccccc5C4=O)cc3c21 [Example 35, 4-amino-1-methyl-N-(1-oxoisoindolin-2-yl)-N-[[5-(trifluoromethyl)-2-pyridyl]methyl]pyrazolo[4,3-c]quinoline-8-carboxamide] | < 100
< 1 | 30 | Cn1ncc2c(N)nc3ccc(C(=O)N(Cc4ccc(C(F)(F)F)cn4)N4CCc5ccccc5C4=O)cc3c21 [Example 36, 4-amino-1-methyl-N-(1-oxo-3,4-dihydroisoquinolin-2-yl)-N-[[5-(trifluoromethyl)-2-pyridyl]methyl]pyrazolo[4,3-c]quinoline-8-carboxamide] | < 100
1 to 5 | 141 | CN(C(=O)c1ccccc1)N(Cc1ccc(C(F)(F)F)cn1)C(=O)c1ccc2nc(N)c3cnn(C)c3c2c1 [Example 37, 4-amino-N′-benzoyl-N′, 1-dimethyl-N-[[5-(trifluoromethyl)-2-pyridyl]methyl]pyrazolo[4,3-c]quinoline-8-carbohydrazide] | 100 to 1000
< 1 | 12 | CCOC(=O)N(C)N(Cc1ccc(C(F)(F)F)cn1)C(=O)c1ccc2nc(N)c3cnn(C)c3c2c1 [Example 38, ethyl N-[(4-amino-1-methyl-pyrazolo[4,3-c]quinoline-8-carbonyl)-[[5-(trifluoromethyl)-2-pyridyl]methyl]amino]-N-methyl-carbamate] | < 100
< 1 | 25 | CC(=O)N(C)N(Cc1ccc(C(F)(F)F)cc1F)C(=O)c1ccc2nc(N)c3cnn(C)c3c2c1 [Example 39, N′-acetyl-4-amino-N-[[2-fluoro-4-(trifluoromethyl)phenyl]methyl]-N′,1-dimethyl-pyrazolo[4,3-c]quinoline-8-carbohydrazide] | < 100
< 1 | 8 | CC(=O)N(C)N(Cc1ccc(C(F)(F)F)cc1F)C(=O)c1cc2c(cc1F)nc(N)c1cnn(C)c12 [Example 40, N′-acetyl-4-amino-7-fluoro-N-[[2-fluoro-4-(trifluoromethyl)phenyl]methyl]-N′,1-dimethyl-pyrazolo[4,3-c]quinoline-8-carbohydrazide] | < 100
< 1 | 46 | CCC(=O)N(C)N(Cc1ccc(C(F)(F)F)cn1)C(=O)c1ccc2nc(N)c3cnn(C)c3c2c1 [Example 41, 4-amino-N′, 1-dimethyl-N′-propanoyl-N-[[5-(trifluoromethyl)-2-pyridyl]methyl]pyrazolo[4,3-c]quinoline-8-carbohydrazide] | < 100
